Assay results from ChEMBL document CHEMBL1201862, “PubChem BioAssay data set” (2004).
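These data come from cells grown in 96-well plates and exposed to compound for 48 hours at five concentrations. The concentration for 50% growth inhibition is given as GI50.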 Calls of active or inactive are those of the source. Rule as the data show it: active = GI50 up to about 1.1 µM and inactive = higher.

Key:
Assay in all cases: inhibition of tumour cell growth, NCI panel, 48 h
HT-29 = tested on: HT-29
SK-MEL-2 = tested on: SK-MEL-2
UACC-257 = tested on: UACC-257
NCI-H522 = tested on: NCI-H522
COLO 205 = tested on: COLO 205
SR = tested on: SR
SF-295 = tested on: SF-295
MOLT-4 = tested on: MOLT-4
OVCAR-5 = tested on: OVCAR-5
HCT-15 = tested on: HCT-15
HCC 2998 = tested on: HCC 2998
SN12C = tested on: SN12C
M14 = tested on: M14
ACHN = tested on: ACHN
SF-268 = tested on: SF-268
NCI-H460 = tested on: NCI-H460
A549 = tested on: A549
UACC-62 = tested on: UACC-62

SMILES | GI50 (HT-29) | GI50 (SK-MEL-2) | GI50 (UACC-257) | GI50 (NCI-H522) | GI50 (COLO 205) | GI50 (SR) | GI50 (SF-295) | GI50 (MOLT-4) | GI50 (OVCAR-5) | GI50 (HCT-15) | GI50 (HCC 2998) | GI50 (SN12C) | GI50 (M14) | GI50 (ACHN) | GI50 (SF-268) | GI50 (NCI-H460) | GI50 (A549) | GI50 (UACC-62)
O=NN(CCCl)C(=O)NC1CCC(CC2CCC(NC(=O)N(CCCl)N=O)CC2)CC1 (stereo not given) | > 100 µM (inactive) | 39.1 µM (inactive) | 3.29 µM (inactive) | 1.53 µM (inactive) | > 48.1 µM (inactive) | 17.9 µM (inactive) | 0.986 µM (active) | 1.21 µM (inactive) | > 100 µM (inactive) | 39.9 µM | > 100 µM (inactive) | 28.4 µM (inactive) | 96.8 µM (inactive) | 38.1 µM (inactive) | 0.836 µM (active) | 1.74 µM (inactive) | 33 µM (inactive) | 
O=C1CCCn2c3ccccc3c3ccnc1c32 | 23.9 µM (inactive) | 47.1 µM (inactive) | 29.9 µM (inactive) | 34.8 µM (inactive) | 41.8 µM (inactive) |  | 38.9 µM (inactive) | 30.8 µM (inactive) | 35.2 µM (inactive) | 41.7 µM | 41.4 µM (inactive) | 40.8 µM (inactive) |  |  | 30 µM (inactive) | 34 µM (inactive) | 44.6 µM (inactive) | 29.2 µM (inactive)
Nc1cc2c(cc1[N+](=O)[O-])[nH]c1c(-c3ccccc3)nccc12 | 14.5 µM (inactive) | 20.2 µM (inactive) | 18 µM (inactive) | 12 µM (inactive) | 20.7 µM (inactive) |  | 21.7 µM (inactive) | 4.43 µM (inactive) | 27.1 µM (inactive) | 12 µM | 13.2 µM (inactive) | 22.3 µM (inactive) |  |  | 25.2 µM (inactive) | 15.8 µM (inactive) | 17.4 µM (inactive) | 13.6 µM (inactive)
Cc1cc(O)nc(NN2C(Cl)C(=O)C2c2cccc(O)c2)n1 (stereo not given) | 41.7 µM (inactive) | 4.43 µM (inactive) | 18.7 µM (inactive) |  | 39.4 µM (inactive) | 4.11 µM (inactive) |  | 5.38 µM (inactive) | 24.9 µM (inactive) | 5.74 µM | 15.1 µM (inactive) | 6.31 µM (inactive) | 7.13 µM (inactive) | 4.61 µM (inactive) | 5.62 µM (inactive) | 4.82 µM (inactive) | 4.44 µM (inactive) | 3.37 µM (inactive)
COc1ccc(/C(=N\NC(=O)NN)C(c2ccc(OC)cc2)C2(O)C(=O)Nc3c(Cl)cc(Cl)cc32)cc1 (stereo not given) | > 100 µM (inactive) | > 100 µM (inactive) | > 100 µM (inactive) |  | > 100 µM (inactive) |  | > 100 µM (inactive) | 5.93 µM (inactive) | > 100 µM (inactive) |  | > 100 µM (inactive) | > 100 µM (inactive) | > 100 µM (inactive) | > 100 µM (inactive) | > 100 µM (inactive) | > 100 µM (inactive) | > 100 µM (inactive) | > 100 µM (inactive)
Cc1cccc2c1C(=O)OC2(c1cccc2ccccc12)c1cccc2ccccc12 | > 100 µM (inactive) | > 100 µM (inactive) | > 100 µM (inactive) | 61 µM (inactive) | > 100 µM (inactive) | > 100 µM (inactive) | 33.6 µM (inactive) | > 100 µM (inactive) | > 100 µM (inactive) | > 100 µM | > 100 µM (inactive) | > 100 µM (inactive) | > 100 µM (inactive) | 63.5 µM (inactive) | 56 µM (inactive) | > 100 µM (inactive) | > 100 µM (inactive) | > 100 µM (inactive)
O=[N+]([O-])c1cccc(C2=NOC3CCCC23)c1 (stereo not given) | > 100 µM (inactive) | > 100 µM (inactive) | > 100 µM (inactive) | > 100 µM (inactive) | > 100 µM (inactive) |  | > 100 µM (inactive) | > 100 µM (inactive) | > 100 µM (inactive) | > 100 µM | > 100 µM (inactive) | > 100 µM (inactive) | > 100 µM (inactive) | > 100 µM (inactive) | > 100 µM (inactive) | > 100 µM (inactive) | > 100 µM (inactive) | > 100 µM (inactive)
CCN(CC)C(=S)SS(C)(=O)=O | 17.3 µM (inactive) | 17.7 µM (inactive) | 23.2 µM (inactive) | < 0.01 µM (active) | 15.4 µM (inactive) |  | 18.9 µM (inactive) | 15.8 µM (inactive) | 19.4 µM (inactive) | 13.4 µM |  | 16 µM (inactive) | 18.2 µM (inactive) | 16.7 µM (inactive) |  |  |  | 15.1 µM (inactive)
C/C=C/CP(=O)(c1ccccc1)c1ccccc1 | > 100 µM (inactive) | > 100 µM (inactive) | > 100 µM (inactive) | > 100 µM (inactive) | > 100 µM (inactive) | > 100 µM (inactive) | > 100 µM (inactive) | > 100 µM (inactive) | > 100 µM (inactive) | > 100 µM | > 100 µM (inactive) | > 100 µM (inactive) | > 100 µM (inactive) | > 100 µM (inactive) |  | > 100 µM (inactive) | > 100 µM (inactive) | > 100 µM (inactive)
CCOC(OCC)(OCC)C(Br)CC (stereo not given) | 53.6 µM (inactive) | > 100 µM (inactive) | > 100 µM (inactive) | > 100 µM (inactive) | 31.8 µM (inactive) | 21.6 µM (inactive) | > 100 µM (inactive) | > 100 µM (inactive) | > 100 µM (inactive) | > 10 µM | > 100 µM (inactive) | 64.9 µM (inactive) | > 100 µM (inactive) | > 100 µM (inactive) | 36.7 µM (inactive) | > 100 µM (inactive) | > 100 µM (inactive) | > 100 µM (inactive)
COC(=O)C1=C(C)N(NC(=O)c2ccccc2)C2(O)CCCC(=O)C12C (stereo not given) | > 100 µM (inactive) | > 100 µM (inactive) | > 100 µM (inactive) | > 100 µM (inactive) | > 100 µM (inactive) |  | > 100 µM (inactive) |  | > 100 µM (inactive) | > 100 µM |  | > 100 µM (inactive) | > 100 µM (inactive) | > 100 µM (inactive) |  |  | > 100 µM (inactive) | > 100 µM (inactive)
CC(=O)OCC1OC(Nc2nc(O)n(C)c(=O)c2-c2csc(N)n2)C(OC(C)=O)C(OC(C)=O)C1OC(C)=O (stereo not given) | > 100 µM (inactive) | > 100 µM (inactive) | > 100 µM (inactive) | > 100 µM (inactive) | > 100 µM (inactive) | > 100 µM (inactive) | > 100 µM (inactive) | > 100 µM (inactive) | > 100 µM (inactive) | > 100 µM |  | > 100 µM (inactive) | > 100 µM (inactive) | > 100 µM (inactive) | > 100 µM (inactive) | > 100 µM (inactive) | > 100 µM (inactive) | > 100 µM (inactive)
O=c1c2ccccc2sc2nc(O)nn12 | > 100 µM (inactive) | > 100 µM (inactive) | > 100 µM (inactive) |  | > 100 µM (inactive) | > 100 µM (inactive) | > 100 µM (inactive) | > 100 µM (inactive) | > 100 µM (inactive) | > 100 µM | > 100 µM (inactive) | > 100 µM (inactive) | > 100 µM (inactive) | > 100 µM (inactive) | > 100 µM (inactive) | > 100 µM (inactive) | > 100 µM (inactive) | > 100 µM (inactive)
C/C(=C1/N=C(c2cc([N+](=O)[O-])ccc2Cl)N(C2=CC=C(Cl)CC2)C1=O)c1cc2ccccc2oc1=O | 63.4 µM (inactive) |  | 26.5 µM (inactive) | 14.4 µM (inactive) | 47.6 µM (inactive) | 28.6 µM (inactive) | 41.7 µM (inactive) | 54.6 µM (inactive) | 41.5 µM (inactive) |  | 24.7 µM (inactive) | 23.4 µM (inactive) | 23.9 µM (inactive) | 3.93 µM (inactive) | 36.9 µM (inactive) | 28 µM (inactive) | 27.9 µM (inactive) | 29.2 µM (inactive)
COc1cccc2c1C(=O)c1c(O)c3c(c(O)c1C2=O)C[C@@](O)(C(=O)CO)CC3OC1CC(NCCCCC(OC(C)=O)OC(C)=O)C(O)C(C)O1 (stereo not given in full) | 0.00312 µM (active) | 0.00212 µM (active) | 0.00468 µM (active) | 0.0015 µM (active) |  | 0.000337 µM (active) | 0.0034 µM (active) | 0.00235 µM (active) | 0.0047 µM (active) | 0.00246 µM | 0.00223 µM (active) | 0.00348 µM (active) | 0.00169 µM (active) | 0.00243 µM (active) | 0.00313 µM (active) | 0.00115 µM (active) | 0.00243 µM (active) | 0.00182 µM (active)
COc1ccc2[nH]c3c(C)c4cc[n+](C)cc4c(C)c3c2c1 | 4.83 µM (inactive) | 3.85 µM (inactive) | 12.1 µM (inactive) | 0.562 µM (active) |  |  | 0.332 µM (active) |  | 9.51 µM (inactive) |  | 3.15 µM (inactive) | 0.116 µM (active) |  | 14 µM (inactive) | 0.197 µM (active) | 1.64 µM (inactive) |  | 3.48 µM (inactive)
Cn1cnc([N+](=O)[O-])c1Sc1nccc(O)n1 | > 100 µM (inactive) | > 100 µM (inactive) | > 100 µM (inactive) | > 100 µM (inactive) | > 100 µM (inactive) | > 100 µM (inactive) | > 100 µM (inactive) | > 100 µM (inactive) | > 100 µM (inactive) |  | > 100 µM (inactive) | > 100 µM (inactive) | > 100 µM (inactive) | > 100 µM (inactive) | > 100 µM (inactive) | > 100 µM (inactive) | > 100 µM (inactive) | > 100 µM (inactive)
